The target of one test is T1, Caspase-3 (Homo sapiens, UniProt P42574).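 Also: Dose-response selectivity test against caspase-3 for candidate inhibitors of sentrin-specific proteases (SENPs).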
T1 sequence (P42574 whole entry): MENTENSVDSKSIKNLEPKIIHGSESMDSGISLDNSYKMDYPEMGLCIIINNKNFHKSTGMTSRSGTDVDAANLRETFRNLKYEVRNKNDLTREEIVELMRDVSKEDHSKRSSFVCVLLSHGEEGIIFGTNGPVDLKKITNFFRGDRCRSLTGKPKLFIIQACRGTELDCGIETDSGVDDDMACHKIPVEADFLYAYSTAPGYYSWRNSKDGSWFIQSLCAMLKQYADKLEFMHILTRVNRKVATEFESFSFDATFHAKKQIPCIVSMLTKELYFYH
In kind it is functional.

Test [1] addresses T2, Sentrin-specific protease 7 (Homo sapiens, UniProt Q9BQF6).
T2 sequence (Q9BQF6 whole entry): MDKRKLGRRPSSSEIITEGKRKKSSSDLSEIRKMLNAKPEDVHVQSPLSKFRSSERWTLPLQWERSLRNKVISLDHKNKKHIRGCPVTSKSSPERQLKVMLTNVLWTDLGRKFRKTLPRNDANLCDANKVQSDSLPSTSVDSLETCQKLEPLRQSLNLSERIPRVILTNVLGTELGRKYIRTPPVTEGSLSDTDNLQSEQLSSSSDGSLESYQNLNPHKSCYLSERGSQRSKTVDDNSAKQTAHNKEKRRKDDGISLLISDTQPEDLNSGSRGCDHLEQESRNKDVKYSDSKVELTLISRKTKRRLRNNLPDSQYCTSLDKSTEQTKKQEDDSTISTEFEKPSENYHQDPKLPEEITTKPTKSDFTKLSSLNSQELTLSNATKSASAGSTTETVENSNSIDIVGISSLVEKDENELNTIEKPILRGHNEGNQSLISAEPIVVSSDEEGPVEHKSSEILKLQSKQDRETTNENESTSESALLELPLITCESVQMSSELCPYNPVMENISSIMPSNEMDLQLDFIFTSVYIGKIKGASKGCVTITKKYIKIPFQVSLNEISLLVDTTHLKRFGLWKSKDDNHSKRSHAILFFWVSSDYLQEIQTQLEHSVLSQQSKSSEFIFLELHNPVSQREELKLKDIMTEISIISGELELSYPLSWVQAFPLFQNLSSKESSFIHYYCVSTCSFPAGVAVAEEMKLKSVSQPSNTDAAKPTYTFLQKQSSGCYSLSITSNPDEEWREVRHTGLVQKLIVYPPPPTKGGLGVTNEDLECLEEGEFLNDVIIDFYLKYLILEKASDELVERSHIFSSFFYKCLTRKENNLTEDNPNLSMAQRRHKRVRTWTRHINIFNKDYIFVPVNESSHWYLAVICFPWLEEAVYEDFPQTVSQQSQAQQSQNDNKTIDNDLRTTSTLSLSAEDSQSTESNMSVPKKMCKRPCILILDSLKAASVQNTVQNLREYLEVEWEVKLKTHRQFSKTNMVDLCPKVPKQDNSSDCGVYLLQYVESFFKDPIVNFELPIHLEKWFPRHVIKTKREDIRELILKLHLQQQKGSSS
In kind it is functional.

Test [2] addresses T3, Sentrin-specific protease 8 (Homo sapiens, UniProt Q96LD8).
T3 sequence (Q96LD8 whole entry): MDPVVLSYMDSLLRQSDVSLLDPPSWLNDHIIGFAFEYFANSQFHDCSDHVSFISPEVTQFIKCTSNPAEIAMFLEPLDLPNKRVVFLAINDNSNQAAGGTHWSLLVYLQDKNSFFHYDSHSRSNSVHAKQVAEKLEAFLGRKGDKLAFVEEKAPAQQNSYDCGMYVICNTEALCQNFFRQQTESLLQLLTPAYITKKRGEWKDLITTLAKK
In kind it is functional.

Test [3] addresses T4, Sentrin-specific protease 6 (Homo sapiens, UniProt Q9GZR1).
T4 sequence (Q9GZR1 whole entry): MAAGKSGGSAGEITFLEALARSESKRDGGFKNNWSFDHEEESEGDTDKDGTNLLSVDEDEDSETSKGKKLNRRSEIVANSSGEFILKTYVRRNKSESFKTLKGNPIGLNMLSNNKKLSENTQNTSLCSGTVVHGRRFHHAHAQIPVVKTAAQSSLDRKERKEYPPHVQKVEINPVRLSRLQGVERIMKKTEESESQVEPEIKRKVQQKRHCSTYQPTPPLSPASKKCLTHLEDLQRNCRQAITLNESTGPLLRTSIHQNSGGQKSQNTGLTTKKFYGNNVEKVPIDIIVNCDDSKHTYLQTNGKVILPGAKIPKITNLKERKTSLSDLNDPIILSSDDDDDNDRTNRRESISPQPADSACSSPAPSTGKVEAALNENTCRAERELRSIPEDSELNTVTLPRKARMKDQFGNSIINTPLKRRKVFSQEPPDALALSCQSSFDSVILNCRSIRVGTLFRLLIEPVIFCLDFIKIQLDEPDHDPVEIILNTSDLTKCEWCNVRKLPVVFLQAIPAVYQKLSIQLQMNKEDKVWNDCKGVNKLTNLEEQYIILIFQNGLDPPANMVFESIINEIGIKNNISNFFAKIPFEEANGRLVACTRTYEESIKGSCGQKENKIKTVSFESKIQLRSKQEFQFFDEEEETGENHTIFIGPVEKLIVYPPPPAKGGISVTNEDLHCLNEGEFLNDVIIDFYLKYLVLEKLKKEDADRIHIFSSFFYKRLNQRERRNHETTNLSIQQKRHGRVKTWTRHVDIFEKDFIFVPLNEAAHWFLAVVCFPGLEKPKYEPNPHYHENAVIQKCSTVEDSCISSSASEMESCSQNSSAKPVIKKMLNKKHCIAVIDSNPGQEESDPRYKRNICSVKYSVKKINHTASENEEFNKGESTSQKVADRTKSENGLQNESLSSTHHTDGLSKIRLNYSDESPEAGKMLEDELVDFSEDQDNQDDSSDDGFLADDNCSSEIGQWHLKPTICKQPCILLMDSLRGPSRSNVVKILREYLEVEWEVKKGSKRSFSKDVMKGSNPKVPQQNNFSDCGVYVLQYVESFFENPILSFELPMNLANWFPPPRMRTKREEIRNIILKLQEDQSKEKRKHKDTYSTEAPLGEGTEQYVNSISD
In kind it is functional.

Test [4] addresses T5, Oxysterols receptor LXR-beta (Homo sapiens, UniProt P55055).
T5 sequence (P55055 whole entry): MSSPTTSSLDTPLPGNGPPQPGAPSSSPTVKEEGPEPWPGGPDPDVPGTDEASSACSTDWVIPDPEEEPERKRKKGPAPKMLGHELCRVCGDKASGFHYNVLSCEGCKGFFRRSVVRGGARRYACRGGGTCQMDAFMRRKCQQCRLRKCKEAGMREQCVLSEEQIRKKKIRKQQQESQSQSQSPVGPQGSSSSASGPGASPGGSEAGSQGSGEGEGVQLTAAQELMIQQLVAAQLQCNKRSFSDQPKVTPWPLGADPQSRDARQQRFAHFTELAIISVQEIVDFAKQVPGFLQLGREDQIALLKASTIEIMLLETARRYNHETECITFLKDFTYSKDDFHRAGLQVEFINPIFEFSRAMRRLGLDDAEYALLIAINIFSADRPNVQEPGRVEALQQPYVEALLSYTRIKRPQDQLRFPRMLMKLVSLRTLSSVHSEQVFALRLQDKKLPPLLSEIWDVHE
Format: functional, cell-based.

The target of test [5] is NAD-dependent protein deacylase sirtuin-5, mitochondrial (Homo sapiens, UniProt Q9NXA8). Description: SIRT5 desuccinylase inhibitors, dose response, biochemical, fluorescence imaging, cherry-pick, set 5 (AID 720591).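 Also: desuccinylation of succinyl peptide AMC substrate read as fluorescence after trypsin release; potency of inhibitors that lower fluorescence and may act on trypsin instead.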
NAD-dependent protein deacylase sirtuin-5, mitochondrial, sequence (Q9NXA8 whole entry): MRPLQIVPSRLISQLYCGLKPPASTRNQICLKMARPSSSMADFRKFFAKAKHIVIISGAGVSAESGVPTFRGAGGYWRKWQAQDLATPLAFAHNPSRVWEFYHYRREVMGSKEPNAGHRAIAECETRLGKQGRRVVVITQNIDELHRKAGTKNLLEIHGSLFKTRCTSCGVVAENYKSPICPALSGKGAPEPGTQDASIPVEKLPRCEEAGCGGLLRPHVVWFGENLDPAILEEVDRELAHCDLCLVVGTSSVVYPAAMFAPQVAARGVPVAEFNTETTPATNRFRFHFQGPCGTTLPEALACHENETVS
Test [6] in a line: P. falciparum Dd2 growth inhibitors, dose response, SYBR Green, cherry-picked samples (AID 1159567). In kind it is functional, cell-based.
Test [7] in a line: HepG2 cell cytotoxicity, dose response, cytotoxicity control, cherry-picked samples (AID 1159577). Format: functional, cell-based.
The next test deals with T6, Protein Tat (Human immunodeficiency virus type 1 group M subtype B (isolate HXB2)(HIV-1), UniProt P04608).
T6 sequence (P04608 whole entry): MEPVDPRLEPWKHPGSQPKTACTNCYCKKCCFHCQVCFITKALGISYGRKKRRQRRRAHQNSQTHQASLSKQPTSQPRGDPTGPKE
Format: functional.

In the next test the test system is HEK293. Description: cells. Format: functional, cell-based. Conditions: Homo sapiens.
The nature of test [8]: Luminescence-based cell-based high throughput dose response assay to identify activators of the DAF-12 from the parasite S. stercoralis (ssDAF-12). In kind it is functional.
Test [9] concerns the target T5, Oxysterols receptor LXR-beta. Description: LXR agonists, Gal4 luciferase reporter, dose response, counter-screen for ssDAF-12 agonist project, cell-based, luminescence, HEK293, S. stercoralis campaign (AID 720737). Format: functional. To be noted: read-out: IC50 (the source's name).
Test [10] has as its target T7, Nuclear receptor subfamily 0 group B member 1 (Homo sapiens, UniProt P51843).
T7 sequence (P51843 whole entry): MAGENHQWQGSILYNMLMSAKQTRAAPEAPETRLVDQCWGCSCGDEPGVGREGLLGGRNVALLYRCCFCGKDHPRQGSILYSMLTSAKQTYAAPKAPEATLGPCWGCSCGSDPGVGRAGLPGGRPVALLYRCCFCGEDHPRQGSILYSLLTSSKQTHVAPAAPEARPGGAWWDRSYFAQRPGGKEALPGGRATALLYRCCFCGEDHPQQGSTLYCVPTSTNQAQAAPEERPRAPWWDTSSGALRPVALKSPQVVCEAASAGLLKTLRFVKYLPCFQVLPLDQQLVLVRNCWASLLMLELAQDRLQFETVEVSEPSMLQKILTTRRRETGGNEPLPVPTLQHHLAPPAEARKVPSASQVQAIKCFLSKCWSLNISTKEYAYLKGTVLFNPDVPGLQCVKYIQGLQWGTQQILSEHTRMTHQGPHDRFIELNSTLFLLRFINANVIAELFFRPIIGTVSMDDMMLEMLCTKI
Description: Luminescence-based cell-based high throughput dose response assay for inhibitors of the orphan nuclear receptor subfamily 0, group B, member 1 (DAX1; NR0B1). [Related pubchem assays (depositor defined):AID504766, AID504790]. In kind it is functional.

Test [11] addresses T8, Rac GTPase-activating protein 1 (Homo sapiens, UniProt Q9H0H5).
T8 sequence (Q9H0H5 whole entry): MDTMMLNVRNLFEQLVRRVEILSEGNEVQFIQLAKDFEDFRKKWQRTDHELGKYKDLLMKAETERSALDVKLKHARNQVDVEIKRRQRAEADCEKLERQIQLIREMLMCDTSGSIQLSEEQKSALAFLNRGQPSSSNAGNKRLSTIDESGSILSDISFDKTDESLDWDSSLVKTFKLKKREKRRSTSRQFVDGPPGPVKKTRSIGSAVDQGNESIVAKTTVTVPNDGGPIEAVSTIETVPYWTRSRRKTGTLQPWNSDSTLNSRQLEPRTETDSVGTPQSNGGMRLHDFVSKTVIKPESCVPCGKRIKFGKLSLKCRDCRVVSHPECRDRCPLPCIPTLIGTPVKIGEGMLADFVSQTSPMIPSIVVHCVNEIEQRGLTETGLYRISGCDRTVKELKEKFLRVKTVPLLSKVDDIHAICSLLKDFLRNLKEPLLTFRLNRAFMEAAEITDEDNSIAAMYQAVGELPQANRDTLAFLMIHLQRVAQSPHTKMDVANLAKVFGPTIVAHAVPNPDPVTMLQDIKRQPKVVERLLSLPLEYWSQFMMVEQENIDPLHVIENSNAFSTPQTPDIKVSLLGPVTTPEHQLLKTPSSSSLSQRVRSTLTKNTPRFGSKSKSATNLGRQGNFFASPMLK
Description: MgcRacGAP GTPase-activating activity inhibitors, confirmation, biochemical, ADP Hunter fluorescence, primary and confirmatory (AID 624330). Format: functional.

A short description of test [12]: MC4R antagonists, dose response, counter-screen for LGR2 antagonist project, cell-based, plate reader, cherry pick (AID 743444).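 Also: transfected HEK 293 cells stimulated with alpha-MSH peptide; potency of inhibitors of the alpha-MSH evoked signal.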 In kind it is functional. For orientation: The purpose of a counterscreen is to sort out artefacts and off-target activity.
Test [13] is described as follows: LGR2 antagonists, dose response, cell-based, HEK293, CRE-luciferase reporter, cherry pick, set 2 (AID 743343).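 Also: transfected cells were stimulated with diluted bursicon conditioned medium after compound addition.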 Format: functional.
The nature of test [14]: HEK293 cell cytotoxicity, dose response, cytotoxicity control, plate reader, cherry-picked samples (AID 743446). In kind it is functional, cell-based.

This note sets out measurements from ChEMBL document CHEMBL1201862, “PubChem BioAssay data set” (2004).

Active and inactive are the calls of the source. Where only a bound is given, the exact number is not on record here.

As for `CCOC(=O)c1c(C)[nH]c(N=Nc2cccc(OC)c2)c1C`, the IC50 at Caspase-3 was 29.1 µM (active); in test [1], 3.75 µM (active); in test [2], 17.3 µM (active); in [3] it was 11.7 µM (active). Besides, in [4], the EC50 was > 67.5 µM (inactive).
Regarding `Cc1ccc(C)c(N2CCN(C(=O)c3cccn4c(=O)c5sccc5nc34)CC2)c1`, the AC50 in [5] is 26.9 µM (active).
For the molecule `COc1cccc(S(=O)(=O)N2CCCCN3[C@@H](CO)[C@@H](c4ccc(C5=CCCCC5)cc4)[C@@H]3C2)c1`, the values for the AC50 in test [6] and in [7] were 1.62 µM (active) and 10.8 µM (active), respectively.
With `O=C(c1ccco1)N1CCN(C(c2ccccn2)c2nnnn2C2CCCC2)CC1` (stereo not given), on Protein Tat, the IC50 is > 100 µM (active).
In the case of `COc1ccc(Cl)cc1C(=O)Nc1ccc2c(c1)OCCO2`, the IC50 (in the test with HEK293; in test [8]; in test [10]) was > 67.5 µM (inactive) each time. For the same molecule, in test [9], the EC50 was > 67.5 µM (inactive).
For `Cc1cccc2sc(NC(=O)C3CC3)nc12`, in test [5], the AC50 was > 30 µM (inactive).
Turning to `Cc1cc(C(=O)NNC(=O)/C=C/c2ccco2)c(C)o1`, the IC50 was > 100 µM (active) at Protein Tat and 125 µM (active) in test [11].
Take `O=C(COC(=O)c1nnc(O)c2ccccc12)Nc1ccccc1`: the AC50 in [5] was > 30 µM (inactive).
For the molecule `Clc1cccc(N2Cc3cc(-c4ccccc4)ccc3-n3nncc3C2)c1`, the figures for the AC50 in test [12], in test [13] and in test [14] were 34.1 µM (active), 29.4 µM (active) and 20.7 µM (active), respectively.

The term IC50 denotes the concentration needed to halve the response being measured. For orientation: AC50 means the midpoint of the concentration-response curve, whichever way the signal moves.
